Measurements: publication PMC10353390, “Biological and Structural Analyses of New Potent Allosteric Inhibitors of HIV-1 Integrase” (Antimicrobial Agents and Chemotherapy, 2023)

Assays:
[1] = target: HIV-1 IN-LEDGF/p75 interaction (Human immunodeficiency virus type 1 group M subtype B, UniProt P12497); experiment: biochemical
Protocol: The INLAIs were tested for the ability to inhibit the HIV-1 IN-LEDGF/p75 interaction in a homogeneous time-resolved fluorescence (HTRF) assay. Our assays used either full-length IN and LEDGF/p75 proteins or their respective minimally sufficient interaction domains: the CCD of HIV-1 IN and the IBD of LEDGF/p75 (Table 1).
HTRF-based CCD-IBD interaction, IN-LEDGF/p75 interaction and IN multimerization assays were performed as described previously ([12]).

[2] = tested on: HIV-1 strains resistant to INSTIs, NRTIs, NNRTIs or PIs; assay type: cell-based
Protocol: To this end, we used both recombinant viruses constructed by introducing described drug resistance mutations into NL4-3 HIV-1 clone as well as drug-resistant clinical HIV-1 isolates.
(§1) MT4 cells growing exponentially at the density of 10^6/mL were infected with HIV-1 strain NL4-3 at a multiplicity of infection (MOI) of 0.001 for 2 h in the presence of different concentrations of compounds, and the CellTiter-Glo luminescent reagent (Promega) was used to quantify cell viability as described previously ([12]).

HIV-1 IN = target: T1, HIV-1 IN (Human immunodeficiency virus type 1 group M subtype B, UniProt P12497); experiment: HTRF IN multimerization assay; assay type: biochemical; details: mean ± SD
T1 construct: made in house
From the text: A key property of INLAIs is the ability to promote HIV-1 IN homo-multimerization ([39][–][42]). […] The maximal signal (plateau) in our IN aggregation assay corresponds to the highest HTRF signal increase under saturating INLAI concentration, relative to baseline level. Thus, MUT916, MUT884, MUT871, and MUT872 increased HIV-1 IN aggregation 3.7 to 4.4-fold, while BDM-2, BI-224436, and S-I-82 did so 5 to 6-fold (Table 1).

[3] = target: CCD of HIV-1 IN and IBD of LEDGF/p75 (Human immunodeficiency virus type 1 group M subtype B, UniProt P12497); experiment: biochemical
[4] = tested on: NL4-3 HIV-1 with INLAI-selected IN single point mutations; assay type: cell-based
NL4-3 HIV-1 strain = experiment: Multiple-round infection assay in MT4 cells, NL4-3; assay type: cell-based; details: MT4 cells
[5] = tested on: recombinant NL4-3 viruses with polymorphisms at IN positions 124 and 125; experiment: Multiple-round infection of MT4 cells with recombinant NL4-3 viruses polymorphic at IN positions 124 and 125; assay type: cell-based, HIV-1
From the text: Located on the HIV-1 IN CCD dimerization interface, the principal INLAI binding pocket overlaps with a hot spot of amino acid sequence polymorphism involving IN residues 124 and 125 ([16]). To test if the new INLAIs maintained antiviral activity against major polymorphisms, we introduced all major combinations of residues found in circulating HIV-1 strains at positions 124 and 125 into NL4-3 HIV-1 molecular clone. In total, we evaluated 15 such combinations that collectively covered 98% of all HIV-1 clade polymorphisms involving these positions ([48]). To gauge effects on the antiviral activity, we calculated the EC50 fold change (FC) relative to wild type NL4-3 HIV-1 strain that features Thr124 and Thr125 (TT; specific polymorphisms are referred to by a single letter amino acid code).
as §1

HXB2 HIV-1 strain = experiment: Multiple-round infection assay in MT4 cells, HXB2; assay type: cell-based; details: Human immunodeficiency virus 1, HXB2; multiple-round infection, MT4 cells; mean ± SD, n > 5; read-out: EC50 HXB2
Protocol: Antiretroviral activity of BDM-2 and its analogs was first evaluated in lymphoblastoid cell line MT4 and in primary human T lymphocytes using NL4-3 and HXB2 laboratory HIV-1 isolates.
as §1

[6] = tested on: primary HIV-1 isolates with polymorphisms at IN positions 124 and 125; experiment: Multiple-round infection of MT4 cells with primary HIV-1 isolates polymorphic at IN positions 124 and 125; assay type: cell-based; details: primary isolate
Protocol: Next, we evaluated the potency of the BDM-2 series of INLAIs against several primary HIV-1 isolates with polymorphisms at IN positions 124 and 125.
as §1

[7] = tested on: VSV-G-pseudotyped NL4-3Δenv-luc; experiment: microbe, parasite or virus in culture; assay type: cell-based, HIV-1
[8] = Cytotoxicity assay in MT4 cells; assay type: cell-based; details: human, MT4 cells (proliferating human T-cell line), CellTiter-Glo
From the text: Growth inhibition was monitored in a proliferating human T-cell line (MT4) with different concentrations of compounds, using the CellTiter-Glo luminescent reagent (Promega), as previously described ([12]).

[9] = INSTI-resistant, NL4-3 background

With `Cc1ccc(C2CC2)c(-c2ccc3c(c2)CCCO3)c1[C@H](OC1CC1)C(=O)O` [MUT872] the IC50 [1] was 170 ± 20 nM, the “Fold change in EC50 relative to NL4-3, E92Q” value [2, 9] was 1 and the “Fold change in EC50 relative to NL4-3, G140S” value [2, 9] was 1. The “Fold change in EC50 relative to NL4-3, G140S/Q148H” value [2, 9] was 1, the “Fold change in EC50 relative to NL4-3, N155H” value [2, 9] was 1 and the “Fold change in EC50 relative to NL4-3, Q148H” value [2, 9] was 1. For the same compound, the “Fold change in EC50 relative to NL4-3, Y143R” value [2, 9] was 0.5, the “Fold change in EC50 relative to NL4-3, NLAY351717” value ([2]; NRTI-resistant clone) was 1 and the “Fold change in EC50 relative to NL4-3, NLAY351753” value ([2]; NRTI/NNRTI-resistant clone) was 1. For the same compound, the “Fold change in EC50 relative to NL4-3, K103N/Y181C” value ([2]; NRTI/NNRTIs group, NL4-3 background) was 1, the “Fold change in EC50 relative to NL4-3, ARP-4595” value ([2]; PI-resistant virus) was 1 and the “Fold change in EC50 relative to NL4-3, ARP-4596” value ([2]; PI-resistant virus) was 1. For the same compound, the “Fold change in EC50 relative to NL4-3, ARP-11801” value ([2]; PI-resistant virus) was 2, the “Fold change in EC50 relative to NL4-3, ARP-11803” value ([2]; PI-resistant virus) was 1 and the “Fold change in EC50 relative to NL4-3, ARP-11807” value ([2]; PI-resistant virus) was 1. For the same compound, the “Fold change in EC50 relative to NL4-3, ARP-11808” value ([2]; PI-resistant virus) was 2, the AC50 (HIV-1 IN; concentration for 50% maximum activation of multimerization) was 43 ± 11 nM and the “IN multimerization Plateau” value (HIV-1 IN; maximum multimerization reached versus baseline) was 440 ± 48%. The IC50 [3] was 420 ± 70 nM, the “EC50 fold change compared to wild type NL4-3, A128T” value [4] was 7 and the “EC50 fold change compared to wild type NL4-3, H171Q” value [4] was 1. The “EC50 fold change compared to wild type NL4-3, N222K” value [4] was 2, the “EC50 fold change compared to wild type NL4-3, T174I” value [4] was 15 and the “EC50 fold change compared to wild type NL4-3, Y99H” value [4] was 2. The EC90 (NL4-3 HIV-1 strain; Human immunodeficiency virus 1, NL43, multiple-round infection, from dose response curves, read-out: EC90 NL4-3) was 61 ± 19 nM, the EC50 (NL4-3 HIV-1 strain; Human immunodeficiency virus 1, NL43, multiple-round infection, mean ± SD, n > 5, read-out: EC50 NL4-3) was 45 ± 12 nM and the “Selectivity index CC50/EC50 NL4-3” value (NL4-3 HIV-1 strain) was 3,088. The “Fold change in EC50 relative to parental NL4-3, AA” value ([5]; recombinant NL4-3, IN 124/125 AA) was 1, the “Fold change in EC50 relative to parental NL4-3, AM” value ([5]; recombinant NL4-3, IN 124/125 AM) was 0.3 and the “Fold change in EC50 relative to parental NL4-3, AT” value ([5]; recombinant NL4-3, IN 124/125 AT) was 1. For the same compound, the “Fold change in EC50 relative to parental NL4-3, AV” value ([5]; recombinant NL4-3, IN 124/125 AV) was 0.5, the “Fold change in EC50 relative to parental NL4-3, GA” value ([5]; recombinant NL4-3, IN 124/125 GA) was 2 and the “Fold change in EC50 relative to parental NL4-3, GT” value ([5]; recombinant NL4-3, IN 124/125 GT) was 2. The “Fold change in EC50 relative to parental NL4-3, NA” value ([5]; recombinant NL4-3, IN 124/125 NA) was 1, the “Fold change in EC50 relative to parental NL4-3, NT” value ([5]; recombinant NL4-3, IN 124/125 NT) was 1 and the “Fold change in EC50 relative to parental NL4-3, NV” value ([5]; recombinant NL4-3, IN 124/125 NV) was 1. For the same compound, the “Fold change in EC50 relative to parental NL4-3, SA” value ([5]; recombinant NL4-3, IN 124/125 SA) was 1, the “Fold change in EC50 relative to parental NL4-3, ST” value ([5]; recombinant NL4-3, IN 124/125 ST) was 1 and the “Fold change in EC50 relative to parental NL4-3, TA” value ([5]; recombinant NL4-3, IN 124/125 TA) was 1. The “Fold change in EC50 relative to parental NL4-3, TM” value ([5]; recombinant NL4-3, IN 124/125 TM) was 0.2, the “Fold change in EC50 relative to parental NL4-3, TV” value ([5]; recombinant NL4-3, IN 124/125 TV) was 1 and the EC50 (HXB2 HIV-1 strain) was 18 ± 1 nM. The “Fold change in EC50 relative to parental NL4-3, CAM2BBY (CRF02)” value ([6]; IN 124/125 AA) was 1, the “Fold change in EC50 relative to parental NL4-3, E0836M4 (D)” value ([6]; IN 124/125 AA) was 1 and the “Fold change in EC50 relative to parental NL4-3, KER2008 (A)” value ([6]; IN 124/125 AA) was 1. For the same compound, the “Fold change in EC50 relative to parental NL4-3, NP1525 (CRF01)” value ([6]; IN 124/125 AA) was 1, the “Fold change in EC50 relative to parental NL4-3, NP1695 (CRF02)” value ([6]; IN 124/125 AA) was 1 and the “Fold change in EC50 relative to parental NL4-3, TZA125 (C)” value ([6]; IN 124/125 AA) was 0.4. For the same compound, the “Fold change in EC50 relative to parental NL4-3, KSM4030 (A)” value ([6]; IN 124/125 GA) was 2, the “Fold change in EC50 relative to parental NL4-3, vGA (C)” value ([6]; IN 124/125 GA) was 4 and the “Fold change in EC50 relative to parental NL4-3, 99ET14 (C)” value ([6]; IN 124/125 NA) was 1. The “Fold change in EC50 relative to parental NL4-3, NP1538 (B)” value ([6]; IN 124/125 NA) was 2, the “Fold change in EC50 relative to parental NL4-3, vNA_1 (B)” value ([6]; IN 124/125 NA) was 1 and the “Fold change in EC50 relative to parental NL4-3, vNA_2 (CRF02)” value ([6]; IN 124/125 NA) was 2. The “Fold change in EC50 relative to parental NL4-3, vNV (B)” value ([6]; IN 124/125 NV) was 1, the “Fold change in EC50 relative to parental NL4-3, vSA_1 (B)” value ([6]; IN 124/125 SA) was 2 and the “Fold change in EC50 relative to parental NL4-3, vSA_2 (CRF02)” value ([6]; IN 124/125 SA) was 2. For the same compound, the “Fold change in EC50 relative to parental NL4-3, vTA_1 (B)” value ([6]; IN 124/125 TA) was 2, the “Fold change in EC50 relative to parental NL4-3, vTA_2 (CRF02)” value ([6]; IN 124/125 TA) was 2 and the “EC50 ratio (single/multiple-round infection)” value [7] was 196. It also gave an EC50 ([7]; Human immunodeficiency virus 1, NL43, MT4, read-out: EC50 in single-round infection) of 8800 ± 300 nM and a CC50 [8] of 139000 ± 29000 nM.
